According to PubChem BioAssay (NCI):
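48-hour exposure; five concentrations; linearly interpolated endpoints. The concentration for 50% growth inhibition is given as GI50. TGI marks complete inhibition of growth.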

Legend:
Assay in all cases: NCI tumour cell line growth inhibition, 48 h
SNB-19 CNS = tested on: SNB-19 CNS
SF-539 CNS = tested on: SF-539 CNS
CCRF-CEM leukemia = tested on: CCRF-CEM leukemia
SK-MEL-28 melanoma = tested on: SK-MEL-28 melanoma
SK-MEL-5 melanoma = tested on: SK-MEL-5 melanoma
IGROV1 ovarian = tested on: IGROV1 ovarian
SN12C renal = tested on: SN12C renal
786-0 renal = tested on: 786-0 renal
SR leukemia = tested on: SR leukemia
HOP-62 NSCLC = tested on: HOP-62 NSCLC

## COc1cc2oc(=O)cc(C)c2cc1[N+](=O)[O-]
SNB-19 CNS
  TGI: > 100 µM
SF-539 CNS
  TGI: 57.7 µM
CCRF-CEM leukemia
  TGI: > 100 µM
SK-MEL-28 melanoma
  TGI: 64.6 µM
SK-MEL-5 melanoma
  TGI: > 65.1 µM
IGROV1 ovarian
  TGI: > 84.8 µM
SN12C renal
  TGI: 37.2 µM
786-0 renal
  TGI: 49.5 µM
SR leukemia
  TGI: > 100 µM
HOP-62 NSCLC
  TGI: > 100 µM

## S=CN1CCCCC1
SNB-19 CNS
  TGI: > 100 µM
SF-539 CNS
  TGI: > 100 µM
CCRF-CEM leukemia
  TGI: > 100 µM
SK-MEL-28 melanoma
  TGI: > 100 µM
SK-MEL-5 melanoma
  TGI: > 100 µM
IGROV1 ovarian
  TGI: > 100 µM
SN12C renal
  TGI: > 100 µM
786-0 renal
  TGI: > 100 µM
SR leukemia
  TGI: > 100 µM
HOP-62 NSCLC
  TGI: > 100 µM

## Cc1ccc(Nc2nc(NCCO)c3ccccc3n2)cc1C
SNB-19 CNS
  GI50: 11.5 µM
  TGI: 24.8 µM
SF-539 CNS
  GI50: 5.87 µM
  TGI: 19.7 µM
CCRF-CEM leukemia
  GI50: 4.57 µM
  TGI: 18.6 µM
SK-MEL-28 melanoma
  GI50: 6.47 µM
  TGI: 20.1 µM
SK-MEL-5 melanoma
  GI50: 2780 nM
  TGI: 10.5 µM
IGROV1 ovarian
  GI50: 9.65 µM
  TGI: 23.8 µM
SN12C renal
  GI50: 10.3 µM
  TGI: 24.4 µM
786-0 renal
  GI50: 6.94 µM
  TGI: 20.1 µM
SR leukemia
  GI50: 2280 nM
  TGI: 6.08 µM
HOP-62 NSCLC
  GI50: 10.7 µM
  TGI: 24.1 µM

## O=C1/C(=C/c2cccc([N+](=O)[O-])c2)COc2ccc(O)c(O)c21
SNB-19 CNS
  GI50: 1.55 µM
  TGI: 2.98 µM
SF-539 CNS
  GI50: 1.61 µM
  TGI: 3.57 µM
CCRF-CEM leukemia
  GI50: 0.335 µM
  TGI: 2.43 µM
SK-MEL-28 melanoma
  GI50: 1.56 µM
  TGI: 2.98 µM
SK-MEL-5 melanoma
  GI50: 1550 nM
  TGI: 2.95 µM
IGROV1 ovarian
  GI50: 1.02 µM
  TGI: 2.97 µM
SN12C renal
  GI50: 1.16 µM
  TGI: 2.51 µM
786-0 renal
  GI50: 1.35 µM
  TGI: 2.85 µM
SR leukemia
  GI50: 364 nM
  TGI: 7.94 µM
HOP-62 NSCLC
  GI50: 1.93 µM
  TGI: 4.62 µM

## O=C(O)c1ccc(S(=O)(=O)c2ccccc2)c([N+](=O)[O-])c1
SNB-19 CNS
  TGI: > 100 µM
SF-539 CNS
  TGI: > 100 µM
CCRF-CEM leukemia
  TGI: > 100 µM
SK-MEL-28 melanoma
  TGI: > 100 µM
SK-MEL-5 melanoma
  TGI: > 100 µM
IGROV1 ovarian
  TGI: > 100 µM
SN12C renal
  TGI: > 100 µM
786-0 renal
  TGI: > 100 µM
SR leukemia
  TGI: > 100 µM
HOP-62 NSCLC
  TGI: > 100 µM

## COc1cccc(-c2nn(-c3ccccc3)cc2-c2ccnc(NCCNS(=O)(=O)c3ccc(Cl)cc3)c2)c1
SNB-19 CNS
  GI50: 7.44 µM
  TGI: > 100 µM
SF-539 CNS
  GI50: 7.35 µM
  TGI: > 100 µM
CCRF-CEM leukemia
  GI50: 3.47 µM
  TGI: > 100 µM
SK-MEL-28 melanoma
  GI50: 7.99 µM
  TGI: > 100 µM
SK-MEL-5 melanoma
  GI50: 1940 nM
  TGI: 3.88 µM
IGROV1 ovarian
  GI50: 6.63 µM
  TGI: > 100 µM
SN12C renal
  GI50: 5.45 µM
  TGI: > 100 µM
786-0 renal
  GI50: 6.61 µM
  TGI: > 100 µM
SR leukemia
  GI50: 2250 nM
  TGI: 6.59 µM
HOP-62 NSCLC
  GI50: 13.5 µM
  TGI: > 100 µM

## CS(=O)(=O)c1ccc(Oc2cc(F)cc(C#N)c2)c2c1[C@H](O)[C@H](F)[C@@H]2F
SNB-19 CNS
  GI50: > 100 µM
  TGI: > 100 µM
SF-539 CNS
  GI50: > 100 µM
  TGI: > 100 µM
CCRF-CEM leukemia
  GI50: > 100 µM
  TGI: > 100 µM
SK-MEL-28 melanoma
  GI50: > 100 µM
  TGI: > 100 µM
SK-MEL-5 melanoma
  GI50: > 100000 nM
  TGI: > 100 µM
IGROV1 ovarian
  GI50: > 100 µM
  TGI: > 100 µM
SN12C renal
  GI50: > 100 µM
  TGI: > 100 µM
786-0 renal
  GI50: > 100 µM
  TGI: > 100 µM
SR leukemia
  GI50: > 100000 nM
  TGI: > 100 µM
HOP-62 NSCLC
  GI50: > 100 µM
  TGI: > 100 µM
